Data as given in article PMC11054271, “ABCG2 Transports the Flukicide Nitroxynil and Affects Its Biodistribution and Secretion into Milk” (Pharmaceutics, 2024).

Assays:
bovine ABCG2 = biological target: T1, bovine ABCG2 (Bos taurus, UniProt Q4GZT4); assay: Transepithelial transport assay in MDCK-II cells transduced with bovine ABCG2; assay type: in vitro ADME; settings: cattle, MDCK-II bABCG2, nitroxynil 10 µM, no Ko143, read-out: Relative efflux transport ratio (BA/AB)
T1 construct: expressed in transfected cells; host or cells: MDCK-II (canine kidney) subclone generated by the authors' group
T1 sequence (Q4GZT4 1-655): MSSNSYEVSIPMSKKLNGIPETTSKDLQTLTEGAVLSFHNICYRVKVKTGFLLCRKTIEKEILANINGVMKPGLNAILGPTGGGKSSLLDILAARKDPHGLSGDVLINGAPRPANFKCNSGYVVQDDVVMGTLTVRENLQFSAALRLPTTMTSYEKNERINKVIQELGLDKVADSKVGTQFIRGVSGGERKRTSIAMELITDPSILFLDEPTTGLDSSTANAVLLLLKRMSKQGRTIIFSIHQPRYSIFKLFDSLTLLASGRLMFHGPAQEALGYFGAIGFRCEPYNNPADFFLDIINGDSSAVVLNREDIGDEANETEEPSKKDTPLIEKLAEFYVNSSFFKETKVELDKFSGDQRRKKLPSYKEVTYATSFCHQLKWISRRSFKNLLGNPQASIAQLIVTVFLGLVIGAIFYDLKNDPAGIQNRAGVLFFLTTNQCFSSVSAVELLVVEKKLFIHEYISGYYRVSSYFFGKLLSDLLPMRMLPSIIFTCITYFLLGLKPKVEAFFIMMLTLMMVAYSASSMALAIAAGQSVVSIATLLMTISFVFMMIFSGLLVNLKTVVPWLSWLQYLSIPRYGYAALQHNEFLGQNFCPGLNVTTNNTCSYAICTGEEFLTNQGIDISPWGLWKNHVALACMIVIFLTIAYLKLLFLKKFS
Description: Parental Madin–Darby canine kidney epithelial cells (MDCK–II) and their subclones transduced with murine (mAbcg2) and human (hABCG2) variants of ABCG2 were kindly provided by Dr. A. H. Schinkel (Netherlands Cancer Institute). Transduced MDCK–II cells with the ovine (oABCG2) and bovine (bABCG2) variants were previously generated by our group. Cells were cultured as described elsewhere.
Transepithelial transport assays were carried out as previously described with minor variations, using Hanks’ balanced salt solution (Sigma-Aldrich) supplemented with HEPES (25 mM), with or without Ko143 (1 μM), and containing or not nitroxynil 10 μM. […] At the end of the experiment, confluence of the monolayer was measured with the previously described Lucifer Yellow permeability test, with minor modifications. The appearance of nitroxynil in the opposite side of the well was measured by HPLC as later described. Active transport was expressed as relative efflux transport ratio (apically directed transport percentage divided by the basolaterally directed translocation percentage) at 4 h and referred to the initial concentration. […]
(§1) Waters 2695 separation module and Waters 2998 UV photodiode array detector set at 270 nm were used for samples analysis. […] Limit of detection (LOD) and quantification (LOQ) were calculated as previously described. […]

murine Abcg2 = assay: Plasma pharmacokinetics in wild-type and Abcg2−/− male mice; assay type: in vivo; settings: 10 mg/kg s.c.
Description: All in vivo experiments were carried out using wild-type and Abcg2^−/− mice aged between 8 and 17 weeks, all of >99% FVB/N genetic background, generated and gently supplied by A. H. Schinkel (Netherlands Cancer Institute). Mice were housed and handled complying with institutional and ARRIVE guidelines and European legislation (EU Directive 2010/63/EU for animal experiments). Additionally, experimental procedures were approved by the Animal Care and Use Committee of the University of León and the Junta de Castilla y León (ULE_011_2019).
For pharmacokinetic experiments, a single dose of nitroxynil at 10 mg/kg was administered subcutaneously to wild-type and Abcg2^−/− male mice (n = 4–5, for each time point). Distomicide® (250 mg/mL) commercial solution was dissolved in saline (sodium chloride 0.9%) and dosed at 200 μL per 30 g body weight. Blood samples were collected at different time points (0.5, 3, 4.5, 6, 24, 48 and 96 h) and heparinized blood samples were centrifugated for 15 min at 3000× g. […]
Plasma, milk and tissue samples from each animal were individually processed and analyzed without pooling, while samples from transport assays were not processed. […]
as §1

Question: For N#Cc1cc(I)c(O)c([N+](=O)[O-])c1 [nitroxynil], which efflux ratio at 4 h, 10 µM (bovine ABCG2) is on record?
Answer: 3.25 ± 0.14

Question: What about the AUC (murine Abcg2; FVB/N, mouse, plasma, sc, Abcg2−/− male mice, 0.5-96 h) of the same compound?
Answer: 3530 ± 130 µg·h/mL

Question: And the “Time of Cmax (sampling point)” value (murine Abcg2; both type of mice (wild-type and Abcg2−/−), male)?
Answer: 3 h
